Reference: patent publication US6642205B2, “Methods and compositions for reducing side effects in chemotherapeutic treatments” (Pro-Pharmaceuticals, Inc., priority 2000, dated 2003)

Experiments:
[1] = tested on: lymphocyte leukemia P-388; assay: Antitumor effect on subcutaneously implanted lymphocyte leukemia P-388 in mice, single i.v. injection; type: in vivo, male BDF1 mice; settings: for Average weight gain/loss from day 1 to day 7 / Nonspecific deaths per group / Average survival time, excluding nonspecific deaths / Average survival time, including nonspecific deaths / average weight loss of an animal: single i.v.; for Nonspecific deaths per group / animals that lived longer than the duration of the study (20 days): six animals per group; for Average survival time, excluding nonspecific deaths / Average survival time, including nonspecific deaths: study duration 20 days; for toxicity compared to Adriamycin: tumor-bearing mice, nonspecific deaths
Protocol: “Nonspecific death” is death of a treated tumor-bearing animal if its day of death was statistically less (P≦0.05) than the corresponding day of death of a tumor-bearing animal in the untreated control group.
The response of subcutaneously implanted lymphocyte leukemia P-388 (Arthur D. Little Inc., Cambridge, Mass.) to treatment with a Galactomycin I, Galactomycin II, and Doxorubicin was evaluated in male BDF1 mice.
(§1) Mice were acclimated in the laboratory one week prior to experimentation. The animals were housed five per cage in a 12-hour light/dark cycle. The animals received filtered water and sterile rodent food ad libitum. The animals were observed daily and clinical signs were noted. Weight of the animals was in the range of 19-21 g at the day of treatment initiation. The mice were healthy, not previously used in other experimental procedures.
There were a total of twelve groups, 10 animals in two control groups (saline only), and six animals in each in 10 agent treatment groups. The groups were treated 24 hours after tumor implantation, as follows:
Tumor cells were implanted in a sub-cutaneous injection of one million cells per mouse and allowed to grow for 24 hours. After that, Adriamycin, Galactomycin I and Galactomycin II were administered as 0.7-10 mg/mL solutions by a single i.v. injection.
Study duration was twenty days after tumor implantation, or nineteen days after treatment initiation.

[2] = Side effects (deaths) after single dose intravenous injection in healthy mice, 20 days observation; type: in vivo, male BDF1 mice; settings: for Deaths per group / Life span after treatment (except survived animals): single i.v.; for Deaths per group: six animals each; for Life span after treatment (except survived animals): one value per dead animal; for toxicity compared to Adriamycin: healthy mice, single i.v. dose
From the text: as §1, with “Male BDF1 mice were used as the experimental animals for measuring side effects of therapeutic preparations. Mice” for “Mice”

Row | Structure (SMILES) | Average weight gain/loss from day 1 to day 7 ([1]; dose 7 mg/kg) | Nonspecific deaths per group ([1]; dose 7 mg/kg) | Average survival time, excluding nonspecific deaths ([1]; dose 7 mg/kg) | Average survival time, including nonspecific deaths ([1]; dose 7 mg/kg) | Average weight gain/loss from day 1 to day 7 ([1]; dose 14 mg/kg) | Average survival time, excluding nonspecific deaths ([1]; dose 14 mg/kg) | Average survival time, including nonspecific deaths ([1]; dose 14 mg/kg) | Nonspecific deaths per group ([1]; dose 14 mg/kg) | Average weight gain/loss from day 1 to day 7 ([1]; dose 40 mg/kg) | Average survival time, excluding nonspecific deaths ([1]; dose 40 mg/kg) | Average survival time, including nonspecific deaths ([1]; dose 40 mg/kg) | toxicity compared to Adriamycin [1] | Deaths per group ([2]; dose 15 mg/kg) | Deaths per group ([2]; dose 20 mg/kg) | Deaths per group ([2]; dose 25 mg/kg) | Deaths per group ([2]; dose 30 mg/kg) | Deaths per group ([2]; dose 40 mg/kg) | Deaths per group ([2]; dose 80 mg/kg) | Deaths per group ([2]; dose 100 mg/kg) | toxicity compared to Adriamycin [2] | also measured
1 | COc1cccc2c1C(=O)c1c(O)c3c(c(O)c1C2=O)C[C@@](O)(C(=O)CO)C[C@@H]3O[C@H]1C[C@H](N)[C@H](O)[C@H](C)O1 [Adriamycin, 14-hydroxydaunomycin, reference compound] | -0.5 g | 0 | 15.5 days | 15.5 days | -1.8 g | >19 days | > 15 days | – | – | – | – | – | – | – | – | – | – | – | – | – | average weight loss of an animal ([1]; dose 14 mg/kg): 1.8 g; animals that lived longer than the duration of the study (20 days) ([1]; dose 14 mg/kg): two; Deaths per group ([2]; dose 21 mg/kg): Three; Deaths per group ([2]; dose 21 mg/kg, listed as Doxorubicin): 3; LD50 at 20 days ([2]; male, BDF1, mouse, in vivo, intravenous, 21 mg/kg, single injection in mice, read-out: LD50 (estimated from Table 2 data)): ~21 mg/kg
2 | COc1cccc2c1C(=O)c1c(O)c3c(c(O)c1C2=O)CC(O)(C(=O)CO)CC3OC1CC(NCC(O)C(O)C(O)C(O)COC2OC(CO)C(O)C(O)C2O)C(O)C(C)O1 [Galactomycin I, N-[α-D-galactopyranosyl-(1→6)-β-O-D-sorbityl]doxorubicin] | +1.7 g | 0 | 11.7 days | 11.7 days | +2.3 g | 12.2 days | 12.2 days | 0 | -0.9 g | >18 days | > 16 days | significantly less toxic | 0 | 0 | 0 | 0 | 1 | 6 | 6 | significantly less toxic | Average weight gain/loss from day 1 to day 7 ([1]; dose 20 mg/kg): -0.8 g; Nonspecific deaths per group ([1]; dose 20 mg/kg): 0; Average survival time, excluding nonspecific deaths ([1]; dose 20 mg/kg): 16.3 days; Average survival time, including nonspecific deaths ([1]; dose 20 mg/kg): 16.3 days; average weight loss of an animal ([1]; dose 40 mg/kg): 0.9 g; animals that lived longer than the duration of the study (20 days) ([1]; dose 40 mg/kg): two; Deaths per group ([2]; dose 10 mg/kg): 0; Life span after treatment (except survived animals) ([2]; dose 40 mg/kg): 2 days; LD50 (estimated from Table 2 data) ([2]; single injection in mice): 50 to 60 mg/kg
3 | Br.COc1cccc2c1C(=O)c1c(O)c3c(c(O)c1C2=O)CC(O)(C(=O)CO)CC3OC1CC(NCC(O)C(O)C(OC2OC(CO)C(O)C(O)C2O)C(O)CO)C(O)C(C)O1 [Galactomycin II, N-[β-D-galactopyranosyl-(1→4)-β-O-D-sorbityl]doxorubicin] | +4.3 g | 0 | 11.7 days | 11.7 days | +0.8 g | 12.0 days | 12.0 days | 0 | -1.1 g | 15.0 days | 15.0 days | significantly less toxic | 0 | 0 | 0 | 0 | 0 | 1 | 3 | significantly less toxic | Nonspecific deaths per group ([1]; dose 40 mg/kg): 0; Average weight gain/loss from day 1 to day 7 ([1]; dose 80 mg/kg): -1.0 g; average weight loss of an animal ([1]; dose 80 mg/kg): 1.0 g; Average survival time, excluding nonspecific deaths ([1]; dose 80 mg/kg): >18 days; Average survival time, including nonspecific deaths ([1]; dose 80 mg/kg): > 16 days; animals that lived longer than the duration of the study (20 days) ([1]; dose 80 mg/kg): two; Deaths per group ([2]; dose 50 mg/kg): 0; Life span after treatment (except survived animals) ([2]; dose 80 mg/kg): 2 days; LD50 (estimated from Table 2 data) ([2]; single injection in mice): ~100 mg/kg
